Data on two compounds can be found in US7135501B2, “Clusianon isomers and use thereof” (priority 2001, dated 2006).

Data set [1] has as its system HCT8 WT cells. The data set can be described thus: Coincubation cytotoxicity experiment with a specific ERK1/2 inhibitor. Format: cell-based, human. The conditions noted are these: 24 hours, different dosage ratios. The protocol: HCT8 WT cells were coincubated.
Data set [2] concerns the target T1, topoisomerase I (Homo sapiens, UniProt P11387).
T1 construct: 160 ng of cell nucleus extract with the topoisomerase I present therein; endogenous in cells
T1 sequence (P11387 1-765): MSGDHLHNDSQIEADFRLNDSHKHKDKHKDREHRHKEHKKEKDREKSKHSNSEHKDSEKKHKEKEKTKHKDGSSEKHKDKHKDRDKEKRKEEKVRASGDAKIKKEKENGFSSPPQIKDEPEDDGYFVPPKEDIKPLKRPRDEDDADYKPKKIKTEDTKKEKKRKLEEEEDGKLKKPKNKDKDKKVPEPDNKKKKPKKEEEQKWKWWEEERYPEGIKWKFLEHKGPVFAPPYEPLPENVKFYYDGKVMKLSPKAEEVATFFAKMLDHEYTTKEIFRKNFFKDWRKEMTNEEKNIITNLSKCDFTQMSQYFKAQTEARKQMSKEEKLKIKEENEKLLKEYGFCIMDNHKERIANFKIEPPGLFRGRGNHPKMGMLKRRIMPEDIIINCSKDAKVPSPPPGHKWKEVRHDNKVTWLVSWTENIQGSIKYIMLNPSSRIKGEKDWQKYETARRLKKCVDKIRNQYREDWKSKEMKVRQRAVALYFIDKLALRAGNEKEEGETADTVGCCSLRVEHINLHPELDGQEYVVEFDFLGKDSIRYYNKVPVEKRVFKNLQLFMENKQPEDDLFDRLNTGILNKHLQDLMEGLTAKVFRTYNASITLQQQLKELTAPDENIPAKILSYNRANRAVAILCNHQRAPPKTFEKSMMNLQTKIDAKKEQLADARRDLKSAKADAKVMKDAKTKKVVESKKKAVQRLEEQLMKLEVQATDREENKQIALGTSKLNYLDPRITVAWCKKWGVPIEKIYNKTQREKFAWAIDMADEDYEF
The data set can be described thus: Topo I unwinding assay. Format: biochemical. The conditions noted are these: for concentration required for topoisomerase I inhibition as multiple of the IC50 of tumor cell growth: in vitro. The source says:
The assay is based on an ATP-independent unwinding of twisted pBR322 plasmid DNA dimers by topoisomerase I. The two different topological forms of the plasmid DNA, the twisted form and unwound, relaxed form, are separated in this investigation by means of an agarose gel. The enzyme topoisomerase I is obtained for this purpose from cell nucleus extracts of the tumor cell lines.
Cell nucleus extracts are obtained by the method of Sullivan with the modifications of Danks et al.

The subject of data set [3] is HCT8 WT bowel cancer cells. Put plainly: Cell cycle analysis (BrdU/PI flow cytometry). Format: cell-based, human. To be noted: IC50 concentration, 24 hours. The protocol: Flow cytometric investigations by an adapted method of Tsugita M. et al. are used for the analysis.
Exponentially growing HCT8 WT bowel cancer cells are treated with substance (I) with the determined IC50 concentration for 24 hours, and then the cells are incubated with BrdU. The cells fixed with methanol are subjected to a treatment with a detergent (Triton X-100/HCl) in order to denature the DNA strands. After incubation with the fluorescence-labeled antibody (anti-BrdU mAb, FITC-labeled), the second fluorescent dye (PI, propidium iodide) is added.
The DNA content (propidium iodide fluorescence) and the amount of BrdU taken up (FITC fluorescence) are determined using a Coulter flow cytometer (Coulter EPICS XL). Exemplary results are depicted in FIGS. 3a and 3b.
FIGS. 3a and 3b show BrdU and PI uptakes into the DNA of HCT8 WT cells, untreated (control, […]) and treated with substance (I) (IC50, 24 hours, […]). The depicted results are representative of n=3 independent experiments.
A general note: Flow cytometry measures light scatter and fluorescence of single cells or particles in a stream.

Data set [4] addresses T2, human telomerase (Homo sapiens, UniProt O14746).
T2 construct: human telomerase obtained from cells of a colon carcinoma (HCT8 WT); endogenous in cells; host or cells: HCT8 WT colon carcinoma cells
The data set can be described thus: Telomeric Repeat Amplification Assay (TRAP) ELISA. The conditions noted are these: at 50 μg/ml; telomerase from HCT8 WT colon carcinoma cells. It counts as biochemical. The protocol: The effect of substance (I) on human telomerase is determined by carrying out the so-called Telomeric Repeat Amplification Assay (TRAP) ELISA, based on the method of N. W. Kim et al.
This method is based on use of the polymerase chain reaction (PCR). This entails, in a first step, a number of (GGTTAG) motifs being attached by means of the telomerase activity to the 3′ end of a biotin-labeled oligonucleotide (TS=telomerase substrate). In a second step, the products extended in this way are amplified by the PCR technique using TS and RP (R=reverse) primers. In this way, a “ladder” of products in increments of 6 bases (initial size=50 nucleo-tides) is generated. During the amplification, DNP-labeled dCTP is incorporated into the PCR products. Detection and quantification of the synthesized telomerase products using a sandwich ELISA method are a measure of the telomerase enzymatic activity.
The telomerase products carry the biotin-labeled TS primers and bind to the surface of microtiter plates previously coated with streptavidin. An anti-DIG antibody conjugated to POD binds to the […] nucleotides incorporated during the amplification. After addition of the substrate TMB, the telomerase activity is visualized by […] via the onset of the color reaction by the enzyme POD. In this case, the measured absorption is directly proportional to the telomerase activity. […]
In general terms: ELISA stands for enzyme-linked immunosorbent assay.

Data set [5] has as its target DNA polymerase (Thermus aquaticus, UniProt P19821). The data set can be described thus: Preliminary experiment with the TSR8 template. The conditions noted are these: maximum concentration 50 μg/ml. It counts as biochemical. The protocol: In order to ensure the effect of substance (I) on telomerase, an effect of substance (I) on DNA polymerase must be ruled out. In a preliminary experiment with TSR8 as internal control, the effect of substance (I) at various concentration levels was ruled out.
Amplification of the TSR8 template depends only on DNA polymerase. Every inhibitor of this enzyme can be detected using the substrate.
The experiment is carried out in triplicates.

The subject of data set [6] is H460 WT cells. Put plainly: DNA double-strand breaks in [14C]d-thymidine-labeled cells, H460 WT. Format: cell-based, human. To be noted: up to 10 times the IC50 concentration, 6 hours. The protocol:
(§1) DNA isolated after treatment of the cells for various times with substance (I) is for this purpose analyzed by gel electrophoresis.
(§2) Determination of the DNA double-strand breaks is performed on ^14C-labeled DNA. For this purpose, [^14C]d-thymidine-labeled cells are treated with various concentrations of substance (I). The DNA is isolated by an adapted method of Chia Chiao et al.
(§3) The DNA fractionated by gel electrophoresis is subsequently stained with ethidium bromide.
(§4) On a transilluminator (302 nm), the intact DNA which has not migrated in the electric field is separated from the fragmented DNA, which has thus migrated into the gel, by extraction. The isolated gel and DNA fragments are liquefied at +80° C. in the presence of hydrochloric acid. After addition of a scintillator it is possible to determine the radioactivity using a liquid scintillation meter (TPI-CARB 2100RT). The measured radioactivity is indicated in […] (cpm).
The results represent averages and their standard deviation from n=3 independent experiments.

Data set [7] relates to ERK1/2 protein. The data set can be described thus: Western blot analysis of ERK1/2 phosphorylation. It counts as cell-based, human. To be noted: HCT8 WT, detectable even at IC50 dose. The text has this:
Phosphorylation of certain signal transduction pathways plays an essential role in the regulation of cell growth and gene expression. The protein ERK1/2 (MAP kinase) belongs to the MAP kinase signal transduction pathway.
Treatment of human colon carcinoma cells (HCT8 WT) with substance (I) leads to phosphorylation of this protein, which is detected in a Western blot analysis (FIG. 8).
(In general: Immunoblotting shows a protein as a band on a membrane.)

The test system of data set [8] is tumor cell lines, resistant subclones and non-tumor cell lines. The data set can be described thus: SRB assay, comparison across the cell line panel. It counts as cell-based.
Procedure: Six unambiguously characterized tumor cell lines of human origin (native cell lines and those converted into resistant subclones) and two non-tumor cell lines are used for further investigations (table 2).
The sensitivity of the cell lines to the substance (I) is determined in a so-called sulforhodamine B (SRB) assay. This is a robust and highly reproducible standard method which is also established for example at the NCI (National Cancer Institute, USA) (Skehan et al. 1990).
The concentration of substance (I) which inhibits cell growth by 50% (IC50, determined from semilogarithmic dose versus effect plots) are indicated.
The subject of data set [9] is HT29 WT. The data set can be described thus: DNA double-strand breaks, HT29 WT. Format: cell-based, human. The protocol:
as §1, §2, §3, §4

T2 sequence (O14746 whole entry): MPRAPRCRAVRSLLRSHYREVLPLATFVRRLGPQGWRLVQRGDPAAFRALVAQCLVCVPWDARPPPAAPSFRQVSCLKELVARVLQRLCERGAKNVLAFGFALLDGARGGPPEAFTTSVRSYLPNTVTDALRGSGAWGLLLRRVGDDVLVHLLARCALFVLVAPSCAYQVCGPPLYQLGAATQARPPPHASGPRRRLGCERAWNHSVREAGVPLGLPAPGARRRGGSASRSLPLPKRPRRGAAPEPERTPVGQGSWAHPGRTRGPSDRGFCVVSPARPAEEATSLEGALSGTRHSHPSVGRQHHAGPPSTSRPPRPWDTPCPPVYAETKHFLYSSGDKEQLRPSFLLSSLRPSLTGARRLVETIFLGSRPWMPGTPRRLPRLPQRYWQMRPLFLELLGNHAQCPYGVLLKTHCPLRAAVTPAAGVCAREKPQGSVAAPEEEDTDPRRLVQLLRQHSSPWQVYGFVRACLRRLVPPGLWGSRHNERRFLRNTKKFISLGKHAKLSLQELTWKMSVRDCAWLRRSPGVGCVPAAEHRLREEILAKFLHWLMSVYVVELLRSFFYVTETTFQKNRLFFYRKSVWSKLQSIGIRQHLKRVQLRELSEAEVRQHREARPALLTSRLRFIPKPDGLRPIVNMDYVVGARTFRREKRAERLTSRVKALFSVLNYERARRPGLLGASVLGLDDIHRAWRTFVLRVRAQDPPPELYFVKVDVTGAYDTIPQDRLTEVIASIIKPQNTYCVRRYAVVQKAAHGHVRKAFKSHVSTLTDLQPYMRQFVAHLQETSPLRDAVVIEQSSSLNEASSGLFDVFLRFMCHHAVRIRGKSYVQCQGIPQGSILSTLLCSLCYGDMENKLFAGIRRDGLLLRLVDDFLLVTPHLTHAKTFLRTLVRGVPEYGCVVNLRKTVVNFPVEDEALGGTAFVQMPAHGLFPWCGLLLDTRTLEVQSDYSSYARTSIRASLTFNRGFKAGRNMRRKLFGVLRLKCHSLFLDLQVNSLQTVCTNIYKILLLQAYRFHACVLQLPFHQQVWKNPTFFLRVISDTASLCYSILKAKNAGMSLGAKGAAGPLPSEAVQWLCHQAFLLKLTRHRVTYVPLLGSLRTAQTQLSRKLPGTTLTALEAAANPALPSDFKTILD
Sequence of DNA polymerase (P19821 whole entry): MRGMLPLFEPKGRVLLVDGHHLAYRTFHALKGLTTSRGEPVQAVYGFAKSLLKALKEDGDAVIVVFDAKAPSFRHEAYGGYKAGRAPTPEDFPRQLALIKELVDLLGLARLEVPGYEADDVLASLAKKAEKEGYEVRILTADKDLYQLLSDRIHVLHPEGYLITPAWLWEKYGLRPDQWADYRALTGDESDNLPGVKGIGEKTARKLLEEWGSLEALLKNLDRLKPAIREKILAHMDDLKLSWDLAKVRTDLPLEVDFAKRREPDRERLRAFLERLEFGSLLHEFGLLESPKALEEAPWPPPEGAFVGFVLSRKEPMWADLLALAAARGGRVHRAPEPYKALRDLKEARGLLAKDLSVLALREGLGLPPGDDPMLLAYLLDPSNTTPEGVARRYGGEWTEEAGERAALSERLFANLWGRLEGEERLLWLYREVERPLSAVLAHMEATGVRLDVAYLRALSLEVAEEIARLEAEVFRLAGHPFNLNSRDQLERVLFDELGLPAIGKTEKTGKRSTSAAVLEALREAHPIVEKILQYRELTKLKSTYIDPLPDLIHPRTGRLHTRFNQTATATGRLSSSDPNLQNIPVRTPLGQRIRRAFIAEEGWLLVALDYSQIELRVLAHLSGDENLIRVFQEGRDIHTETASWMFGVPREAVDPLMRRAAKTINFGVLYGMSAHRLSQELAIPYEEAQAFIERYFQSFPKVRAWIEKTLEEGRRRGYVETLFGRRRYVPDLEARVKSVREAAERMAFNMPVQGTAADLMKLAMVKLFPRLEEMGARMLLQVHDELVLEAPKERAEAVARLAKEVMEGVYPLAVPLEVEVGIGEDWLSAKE

Broadly, the inhibition is the relative decrease from the control value, in per cent. A higher inhibition goes with a strong effect. As for `CC(C)=CCC1=C(O)[C@]2(C(=O)c3ccccc3)C(=O)[C@@](CC=C(C)C)(CC(CC=C(C)C)C2(C)C)C1=O` (stereo partly drawn) [Substance (I), 1-Benzoyl-8,8-dimethyl-2-hydroxy-3,5,7-tris-(3-methyl-2-butenyl)bicyclo[3.3.1]non-2-ene-4,9-dione], the “cytotoxicity on coincubation with a specific ERK1/2 inhibitor (MAP kinase inhibitor)” value in [1] is listed as “pronounced synergism”. Besides, the inhibition at 100 µg/mL in data set [2] (at 100 μg/ml, 160 ng cell nucleus extract, pBR322 plasmid DNA) came out at 100%. For the same compound, the “concentration required for topoisomerase I inhibition as multiple of the IC50 of tumor cell growth” value in data set [2] was 20 times. Besides, the “effect on cell cycle (BrdU uptake)” value in data set [3] was “inhibition of the synthesis phase”. For the same compound, in data set [4], the “inhibition of human telomerase” value is given as “Complete inhibition”. Further, the “inhibition of Tag polymerase (TSR8 template amplification)” value in [5] was “does not lead to a significant inhibition”. Also, the “induction of DNA double-strand breaks” value in data set [6] is on record as “significant amounts of double-strand breaks”; in data set [9] it was “substantial amounts of double-strand breaks”. The “phosphorylation of the ERK1/2 protein” value in data set [7] is on record as “dose-dependent phosphorylation”. For the same compound, the “cytotoxicity for the non-tumor cell lines compared with tumor cell lines” value in [8] (fibroblasts of the 3T3 and MCR 5 lines) is “considerably less”. In [8] (resistant subclones versus native cell lines), the “cross-resistance to the indicated cytostatics” value is on record as “no cross-resistance”.
Turning to `CC[C@@]1(O)C(=O)OCc2c1cc1n(c2=O)Cc2cc3c(CN(C)C)c(O)ccc3nc2-1` [topotecan, reference compound], the “concentration required for topoisomerase I inhibition as multiple of the IC50 of tumor cell growth” value in data set [2] is 1000 times.
